The subject of the experiment is microorganism associated with Morgellons disease. The experiment is described as follows: Drug sensitivity / growth inhibition testing of the cultured microorganism. Format: cell-based. The conditions noted are these: for inhibitory effect on organism growth: antibiotic added to solution. The text has this: In other studies, Itraconazole and Posaconazole were each added to the culture medium followed by the organism.

For the compound `CN(C)[C@@H]1C(O)=C(C(N)=O)C(=O)[C@@]2(O)C(O)=C3C(=O)c4c(O)cccc4[C@@](C)(O)[C@H]3C[C@@H]12` [Tetracycline], the “inhibitory effect on organism growth” value is on record as “no inhibitory effect”.
`CC[C@@H]([C@H](C)O)n1ncn(-c2ccc(N3CCN(c4ccc(OC[C@@H]5CO[C@@](Cn6cncn6)(c6ccc(F)cc6F)C5)cc4)CC3)cc2)c1=O` [Posaconazole]: the inhibition of growth entry (antifungal agent added to the culture medium followed by the organism) was “Neither antifungal agent was shown to inhibit growth”.
Neomycin: the “inhibitory effect on organism growth” value was “no inhibitory effect”.
On to Penicillin, for which the “inhibitory effect on organism growth” value is “no inhibitory effect”.
On to `CC1(C)S[C@@H]2[C@H](NC(=O)[C@H](N)c3ccccc3)C(=O)N2[C@H]1C(=O)O` [Ampicillin], for which the “inhibitory effect on organism growth” value is “no inhibitory effect”.
Regarding `O=C(O)c1cn(C2CC2)c2cc(N3CCNCC3)c(F)cc2c1=O` [Ciprofloxacin], the “inhibitory effect on organism growth” value is “no inhibitory effect”.
Same read-out and setting: the entry for `CC[C@H]1OC(=O)[C@H](C)[C@@H](O[C@H]2C[C@@](C)(OC)[C@@H](O)[C@H](C)O2)[C@H](C)[C@@H](O[C@@H]2O[C@H](C)C[C@H](N(C)C)[C@H]2O)[C@](C)(O)C[C@@H](C)C(=O)[C@H](C)[C@@H](O)[C@]1(C)O` [Erythromycin] is “no inhibitory effect”.

(Values after patent US20160090571A1, “CULTURE MEDIA AND METHODS FOR CULTURING MICROORGANISMS” (Orior, LLC, priority 2014, published 2016).)
